Values after ≈ are worked out from the molar mass of the structure shown.
Key:
[1] = system: Mycobacterium tuberculosis; experiment: Antitubercular activity against drug-susceptible Mycobacterium tuberculosis clinical isolates assessed as growth inhibition; type: functional
[2] = Oral bioavailability in dog; type: ADME, organism-based, Canis lupus familiaris; details: in vivo
[3] = system: Mycolicibacterium smegmatis; experiment: Antimicrobial activity against Mycobacterium smegmatis assessed as intracellular bacterial killing; type: functional
[4] = system: Mycobacterium tuberculosis; experiment: Antitubercular activity against Mycobacterium tuberculosis assessed as growth inhibition by alamar blue assay; type: functional
[5] = system: Mycobacterium tuberculosis; experiment: Antitubercular activity against Mycobacterium tuberculosis H37Rv assessed as growth inhibition; type: functional
[6] = system: Mycolicibacterium smegmatis; experiment: Antimicrobial activity against Mycobacterium smegmatis; type: functional
[7] = system: Mycobacterium tuberculosis; experiment: Antitubercular activity against Mycobacterium tuberculosis assessed as growth inhibition; type: functional
[8] = system: Mycobacterium tuberculosis; experiment: Antitubercular activity against Mycobacterium tuberculosis H37Rv assessed as growth inhibition in presence of […] clavulanate; type: functional
[9] = system: Mycobacterium tuberculosis; experiment: Antitubercular activity against Mycobacterium tuberculosis infected in mouse J774A.1 assessed as reduction in bacterial count; type: functional
[10] = system: Mycobacterium tuberculosis; experiment: Antitubercular activity against XDR clinical isolates Mycobacterium tuberculosis […] assessed as growth inhibition in presence of […] clavulanate; type: functional
[11] = system: Mycobacterium tuberculosis; experiment: Antitubercular activity against Mycobacterium tuberculosis infected in mouse assessed as reduction in colony formation at 20 mg/kg for 20 days; type: functional
[12] = system: Mycobacterium avium; experiment: Antimycobacterial activity against Mycobacterium avium assessed as growth inhibition; type: functional

Structure (SMILES): CC(C)=CCC/C(C)=C/CNCCNC1C2CC3CC(C2)CC1C3 (stereo not drawn) [SQ109]
- MIC [1]: 0.2 µg/mL (≈ 0.605 µM)
- bioavailability [2]: 2.4%

Structure (SMILES): CO[C@H]1/C=C/O[C@@]2(C)Oc3c(C)c(O)c4c(O)c(c(/C=N/N5CCN(C)CC5)c(O)c4c3C2=O)NC(=O)/C(C)=C\C=C\[C@H](C)[C@H](O)[C@@H](C)[C@@H](O)[C@@H](C)[C@H](OC(C)=O)[C@@H]1C [RIFAMPIN]
- MIC [3]: < 1 µg/mL

Structure (SMILES): COc1nc2ccc(Br)cc2cc1[C@@H](c1ccccc1)[C@@](O)(CCN(C)C)c1cccc2ccccc12 [BEDAQUILINE]
- MIC [1]: 0.002 µg/mL (≈ 0.0036 µM)
- MBC90 [4]: 2 µg/mL (≈ 3.6 µM)
- WCC90 [4]: 1 µg/mL

Structure (SMILES): O=c1nc(N2CCN(CCCCc3ccccc3)CC2)sc2c([N+](=O)[O-])cc(C(F)(F)F)cc12
- MIC [5]: 0.00019 µg/mL

Structure (SMILES): C[C@H]1COC2(CCN(c3nc(=O)c4cc(C(F)(F)F)cc([N+](=O)[O-])c4s3)CC2)O1 [BTZ-043]
- MIC [5]: 0.001 µg/mL
- MIC [6]: 0.004 µg/mL (≈ 0.00927 µM)
- MIC [3]: < 0.01 µg/mL

Structure (SMILES): CC(=O)NC[C@H]1CN(c2ccc(N3CCSCC3)c(F)c2)C(=O)O1 [SUTEZOLID]
- MIC [7]: 0.125 µg/mL (≈ 0.354 µM)

Structure (SMILES): C[C@@]1(COc2ccc(N3CCC(Oc4ccc(OC(F)(F)F)cc4)CC3)cc2)Cn2c([N+](=O)[O-])cnc2O1
- MIC [5]: 0.012 µg/mL

Structure (SMILES): CC1(C)S[C@@H]2[C@H](NC(=O)[C@H](N)c3ccc(O)cc3)C(=O)N2[C@H]1C(=O)O [AMOXICILLIN]
- MIC [8]: 0.32 µg/mL
- fold change (FC) [9]: 1.5
- MIC [10]: 0.23 µg/mL

Structure (SMILES): CC(=O)NC[C@H]1CN(c2ccc(N3CCOCC3)c(F)c2)C(=O)O1 [LINEZOLID]
- MIC [7]: < 1 µg/mL

Structure (SMILES): COc1ncccc1Nc1cc2nc3ccccc3n(-c3ccc(OC(F)(F)F)cc3)c-2c/c1=N\C1CCC(OC)CC1 (stereo not drawn)
- MIC [5]: > 25 µg/mL
- log10cfu [11]: 4.66

Structure (SMILES): O=c1nc(N2CCN(CC3CCCCC3)CC2)sc2c([N+](=O)[O-])cc(C(F)(F)F)cc12 [MACOZINONE]
- MIC [5]: 0.00019 µg/mL

Structure (SMILES): O=[N+]([O-])c1cn2c(n1)OC[C@@H](OCc1ccc(OC(F)(F)F)cc1)C2 [PRETOMANID]
- MIC [5]: 0.13 µg/mL

Structure (SMILES): O=c1nc(N2CCN(CCC3CCCCC3)CC2)sc2c([N+](=O)[O-])cc(C(F)(F)F)cc12
- MIC [5]: 0.00019 µg/mL

Structure (SMILES): CCCCCCCN1CCN(c2nc(=O)c3cc(C(F)(F)F)cc([N+](=O)[O-])c3s2)CC1
- MIC [5]: 0.00019 µg/mL

Structure (SMILES): NNC(=O)c1ccncc1 [ISONIAZID]
- MIC [3]: 0.1 µg/mL (≈ 0.729 µM)

Structure (SMILES): CC(C)/N=c1\cc2n(-c3ccc(Cl)cc3)c3ccccc3nc-2cc1Nc1ccc(Cl)cc1 [CLOFAZIMINE]
- MIC [5]: 1.21 µg/mL
- MIC [7]: 0.12 µg/mL (≈ 0.253 µM)
- log10cfu [11]: 6.33

Structure (SMILES): O=C([C@@H](O)CO)N1CC=C(c2c(F)cc(N3C[C@H](COc4ccon4)OC3=O)cc2F)CC1 [POSIZOLID]
- MIC [5]: 1 µg/mL

Structure (SMILES): O=c1nc(N2CCN(CCCCOc3ccccc3)CC2)sc2c([N+](=O)[O-])cc(C(F)(F)F)cc12
- MIC [5]: 0.00019 µg/mL

Structure (SMILES): CO[C@H]1/C=C/O[C@@]2(C)Oc3c(C)c(O)c4c(c3C2=O)C2=NC3(CCN(CC(C)C)CC3)NC2=C(NC(=O)/C(C)=C\C=C\[C@H](C)[C@H](O)[C@@H](C)[C@@H](O)[C@@H](C)[C@H](OC(C)=O)[C@@H]1C)C4=O [RIFABUTIN]
- MIC [5]: 0.015 µg/mL
- MIC [12]: 0.06 µg/mL (≈ 0.0708 µM)

Structure (SMILES): COc1c(N2CC3(CC3)[C@](C)(N)C2)c(F)cc2c(=O)c(C(=O)O)cn([C@@H]3C[C@@H]3F)c12
- MIC90 [7]: 0.06 µg/mL (≈ 0.143 µM)

Structure (SMILES): CCc1nc2ccc(Cl)cn2c1C(=O)NCc1ccc(N2CCC(c3ccc(OC(F)(F)F)cc3)CC2)cc1 [TELACEBEC]
- MIC [5]: 2.7 nM
- MIC90 [10]: < 0.43 nM

— ChEMBL document CHEMBL3352501, “SAR analysis of new anti-TB drugs currently in pre-clinical and clinical development” (Eur J Med Chem, 2014)
